In US9365576B2, “Pyrrolopyrrolidinone compounds” (Novartis AG, priority 2012, dated 2016):

Biological target: human MDM2 protein (amino acids 2-188) (Homo sapiens (Human), UniProt Q00987)
Assay: TR-FRET assay, p53-MDM2 Assay 2 (modified)
Assay type: binding
Details: TR-FRET; 0.1 nM MDM2, 0.1 nM Europium labeled streptavidin, Tecan genios Pro reader; read-out: IC50 p53-MDM2 Assay 2
Summary of the method: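 IC50 values were curve-fitted from the time-resolved 665/620 nm emission ratio after 340 nm excitation. The assay combined 0.625 nM europium-streptavidin donor with 1.25 nM C-terminally biotinylated MDM2 2–188 (15 min, RT), followed by 15 min with 10 nM Cy5-labeled p53 18–26 acceptor peptide.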

human MDM2 protein (amino acids 2-188), sequence (Q00987 2-188): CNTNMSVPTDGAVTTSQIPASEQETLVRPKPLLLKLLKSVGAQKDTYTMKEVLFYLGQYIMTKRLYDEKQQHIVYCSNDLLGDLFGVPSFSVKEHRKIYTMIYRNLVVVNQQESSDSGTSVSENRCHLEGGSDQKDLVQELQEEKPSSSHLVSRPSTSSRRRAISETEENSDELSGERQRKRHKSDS

Structure (SMILES)	IC50 [pM]
COc1nc(N)ncc1-c1cc2c(n1C(C)C)[C@H](c1ccc(C#N)cc1)N(c1ccc(F)c(Cl)c1)C2=O [Example 171, 4-[(S)-2-(2-Amino-4-methoxy-pyrimidin-5-yl)-5-(3-chloro-4-fluoro-phenyl)-1-isopropyl-4-oxo-1,4,5,6-tetrahydro-pyrrolo[3,4-b]pyrrol-6-yl]-benzonitrile]	699
COc1nc(N)ncc1-c1cc2c(n1C(C)C)[C@@H](c1ccc(C#N)cc1)N(c1ccc(F)c(Cl)c1)C2=O [Example 172, 4-[(R)-2-(2-Amino-4-methoxy-pyrimidin-5-yl)-5-(3-chloro-4-fluoro-phenyl)-1-isopropyl-4-oxo-1,4,5,6-tetrahydro-pyrrolo[3,4-b]pyrrol-6-yl]-benzonitrile]	115000
COc1ncc(-c2cc3c(n2C(C)C)C(c2ccc(C#N)cc2)N([C@H]2CC[C@H](O)CC2)C3=O)c(OC)n1 (stereo partly drawn) [Example 173, 4-[2-(2,4-Dimethoxy-pyrimidin-5-yl)-5-(trans-4-hydroxy-cyclohexyl)-1-isopropyl-4-oxo-1,4,5,6-tetrahydro-pyrrolo[3,4-b]pyrrol-6-yl]-benzonitrile]	13600
COc1nc(N(C)C)ncc1-c1cc2c(n1C(C)C)C(c1ccc(C#N)cc1)N([C@H]1CC[C@H](O)CC1)C2=O (stereo partly drawn) [Example 174, 4-[2-(2-Dimethylamino-4-methoxy-pyrimidin-5-yl)-5-(trans-4-hydroxy-cyclohexyl)-1-isopropyl-4-oxo-1,4,5,6-tetrahydro-pyrrolo[3,4-b]pyrrol-6-yl]-benzonitrile]	1670
COc1nc(N)ncc1-c1cc2c(n1C(C)C)C(c1ccc(Cl)cc1)N(c1cc(C)nn1C)C2=O (stereo not shown) [Example 175, 2-(2-Amino-4-methoxy-pyrimidin-5-yl)-6-(4-chloro-phenyl)-5-(2,5-dimethyl-2H-pyrazol-3-yl)-1-isopropyl-5,6-dihydro-1H-pyrrolo[3,4-b]pyrrol-4-one]	3720
COc1ncc(-c2cc3c(n2C(C)C)C(c2ccc(Cl)cc2)N(c2cc(C)nn2C)C3=O)c(OC)n1 (stereo not shown) [Example 176, 6-(4-Chloro-phenyl)-2-(2,4-dimethoxy-pyrimidin-5-yl)-5-(2,5-dimethyl-2H-pyrazol-3-yl)-1-isopropyl-5,6-dihydro-1H-pyrrolo[3,4-b]pyrrol-4-one]	870
COc1nc(N(C)C)ncc1-c1cc2c(n1C(C)C)C(c1ccc(Cl)cc1)N(c1cc(C)nn1C)C2=O (stereo not shown) [Example 177, 6-(4-Chloro-phenyl)-2-(2-dimethylamino-4-methoxy-pyrimidin-5-yl)-5-(2,5-dimethyl-2H-pyrazol-3-yl)-1-isopropyl-5,6-dihydro-1H-pyrrolo[3,4-b]pyrrol-4-one]	514
COc1cn(C)c(=O)cc1-c1cc2c(n1C(C)C)C(c1ccc(Cl)cc1)N(c1cc(C)nn1C)C2=O (stereo not shown) [Example 178, 6-(4-Chloro-phenyl)-5-(2,5-dimethyl-2H-pyrazol-3-yl)-1-isopropyl-2-(5-methoxy-1-methyl-2-oxo-1,2-dihydro-pyridin-4-yl)-5,6-dihydro-1H-pyrrolo[3,4-b]pyrrol-4-one]	1070
COc1ncc(-c2cc3c(n2C(C)C)C(c2ccc(C#N)cc2)N(c2cc(C)nn2C)C3=O)c(OC)n1 (stereo not shown) [Example 179, 4-[2-(2,4-Dimethoxy-pyrimidin-5-yl)-5-(2,5-dimethyl-2H-pyrazol-3-yl)-1-isopropyl-4-oxo-1,4,5,6-tetrahydro-pyrrolo[3,4-b]pyrrol-6-yl]-benzonitrile]	3460
COc1nc(N(C)C)ncc1-c1cc2c(n1C(C)C)C(c1ccc(C#N)cc1)N(c1cc(C)nn1C)C2=O (stereo not shown) [Example 180, 4-[2-(2-Dimethylamino-4-methoxy-pyrimidin-5-yl)-5-(2,5-dimethyl-2H-pyrazol-3-yl)-1-isopropyl-4-oxo-1,4,5,6-tetrahydro-pyrrolo[3,4-b]pyrrol-6-yl]-benzonitrile]	647
COc1ncc(-c2cc3c(n2C(C)C)C(c2ccc(Cl)cc2)N(c2cn(C)nc2C)C3=O)c(OC)n1 (stereo not shown) [Example 181, 6-(4-Chloro-phenyl)-2-(2,4-dimethoxy-pyrimidin-5-yl)-5-(1,3-dimethyl-1H-pyrazol-4-yl)-1-isopropyl-5,6-dihydro-1H-pyrrolo[3,4-b]pyrrol-4-one]	2390
COc1nc(N(C)C)ncc1-c1cc2c(n1C(C)C)C(c1ccc(Cl)cc1)N(c1cn(C)nc1C)C2=O (stereo not shown) [Example 182, 6-(4-Chloro-phenyl)-2-(2-dimethylamino-4-methoxy-pyrimidin-5-yl)-5-(1,3-dimethyl-1H-pyrazol-4-yl)-1-isopropyl-5,6-dihydro-1H-pyrrolo[3,4-b]pyrrol-4-one]	659
COc1ccc(S(C)(=O)=O)cc1-c1cc2c(n1C(C)C)C(c1ccc(Cl)cc1)N(c1cn(C)nc1C)C2=O (stereo not shown) [Example 183, 6-(4-Chloro-phenyl)-5-(1,3-dimethyl-1H-pyrazol-4-yl)-1-isopropyl-2-(5-methanesulfonyl-2-methoxy-phenyl)-5,6-dihydro-1H-pyrrolo[3,4-b]pyrrol-4-one]	2570
COc1cn(C)c(=O)cc1-c1cc2c(n1C(C)C)C(c1ccc(Cl)cc1)N(c1cn(C)nc1C)C2=O (stereo not shown) [Example 184, 6-(4-Chloro-phenyl)-5-(1,3-dimethyl-1H-pyrazol-4-yl)-1-isopropyl-2-(5-methoxy-1-methyl-2-oxo-1,2-dihydro-pyridin-4-yl)-5,6-dihydro-1H-pyrrolo[3,4-b]pyrrol-4-one]	5600
COc1nc(N(C)C)ncc1-c1cc2c(n1C(C)C)C(c1ccc(C#N)cc1)N(c1cc(Cl)c(=O)n(C)c1)C2=O (stereo not shown) [Example 185, 4-[5-(5-Chloro-1-methyl-6-oxo-1,6-dihydro-pyridin-3-yl)-2-(2-dimethylamino-4-methoxy-pyrimidin-5-yl)-1-isopropyl-4-oxo-1,4,5,6-tetrahydro-pyrrolo[3,4-b]pyrrol-6-yl]-benzonitrile]	225
COc1ncc(-c2cc3c(n2C(C)C)[C@H](c2ccc(C#N)cc2)N(c2cc(Cl)c(=O)n(C)c2)C3=O)c(OC)n1 [Example 186, 4-[(S)-5-(5-Chloro-1-methyl-6-oxo-1,6-dihydro-pyridin-3-yl)-2-(2,4-dimethoxy-pyrimidin-5-yl)-1-isopropyl-4-oxo-1,4,5,6-tetrahydro-pyrrolo[3,4-b]pyrrol-6-yl]-benzonitrile]	108
COc1ncc(-c2cc3c(n2C(C)C)[C@@H](c2ccc(C#N)cc2)N(c2cc(Cl)c(=O)n(C)c2)C3=O)c(OC)n1 [Example 187, 4-[(R)-5-(5-Chloro-1-methyl-6-oxo-1,6-dihydro-pyridin-3-yl)-2-(2,4-dimethoxy-pyrimidin-5-yl)-1-isopropyl-4-oxo-1,4,5,6-tetrahydro-pyrrolo[3,4-b]pyrrol-6-yl]-benzonitrile]	144000

Other lines, results leading:

IC50 [pM]	Structure (SMILES)
79	COc1nc(N(C)C)ncc1-c1cc2c(n1C(C)C)[C@H](c1ccc(Cl)cc1)N(c1c[nH]c(=O)c(Cl)c1)C2=O [Example 188, (S)-5-(5-Chloro-6-oxo-1,6-dihydro-pyridin-3-yl)-6-(4-chloro-phenyl)-2-(2-dimethylamino-4-methoxy-pyrimidin-5-yl)-1-isopropyl-5,6-dihydro-1H-pyrrolo[3,4-b]pyrrol-4-one]
10600	COc1nc(N(C)C)ncc1-c1cc2c(n1C(C)C)[C@@H](c1ccc(Cl)cc1)N(c1c[nH]c(=O)c(Cl)c1)C2=O [Example 189, (R)-5-(5-Chloro-6-oxo-1,6-dihydro-pyridin-3-yl)-6-(4-chloro-phenyl)-2-(2-dimethylamino-4-methoxy-pyrimidin-5-yl)-1-isopropyl-5,6-dihydro-1H-pyrrolo[3,4-b]pyrrol-4-one]
631	COc1nc(N(C)C)ncc1-c1cc2c(n1C(C)C)[C@H](c1ccc(C#N)cc1)N(C1CCOCC1)C2=O [Example 190, 4-[(S)-2-(2-Dimethylamino-4-methoxy-pyrimidin-5-yl)-1-isopropyl-4-oxo-5-(tetrahydro-pyran-4-yl)-1,4,5,6-tetrahydro-pyrrolo[3,4-b]pyrrol-6-yl]-benzonitrile]
280000	COc1nc(N(C)C)ncc1-c1cc2c(n1C(C)C)[C@@H](c1ccc(C#N)cc1)N(C1CCOCC1)C2=O [Example 191, 4-[(R)-2-(2-Dimethylamino-4-methoxy-pyrimidin-5-yl)-1-isopropyl-4-oxo-5-(tetrahydro-pyran-4-yl)-1,4,5,6-tetrahydro-pyrrolo[3,4-b]pyrrol-6-yl]-benzonitrile]
128	COc1ncc(-c2cc3c(n2C(C)C)C(c2ccc(Cl)c(F)c2)N(c2cc(Cl)c(=O)n(C)c2)C3=O)c(OC)n1 (stereo not shown) [Example 192, 6-(4-Chloro-3-fluoro-phenyl)-5-(5-chloro-1-methyl-6-oxo-1,6-dihydro-pyridin-3-yl)-2-(2,4-dimethoxy-pyrimidin-5-yl)-1-isopropyl-5,6-dihydro-1H-pyrrolo[3,4-b]pyrrol-4-one]
139	COc1nc(N(C)C)ncc1-c1cc2c(n1C(C)C)C(c1ccc(Cl)c(F)c1)N(c1cc(Cl)c(=O)n(C)c1)C2=O (stereo not shown) [Example 193, 6-(4-Chloro-3-fluoro-phenyl)-5-(5-chloro-1-methyl-6-oxo-1,6-dihydro-pyridin-3-yl)-2-(2-dimethylamino-4-methoxy-pyrimidin-5-yl)-1-isopropyl-5,6-dihydro-1H-pyrrolo[3,4-b]pyrrol-4-one]
194	COc1nc(N(C)C)ncc1-c1cc2c(n1C(C)C)C(c1ccc(C#N)c(F)c1)N(c1cc(Cl)c(=O)n(C)c1)C2=O (stereo not shown) [Example 194, 4-[5-(5-Chloro-1-methyl-6-oxo-1,6-dihydro-pyridin-3-yl)-2-(2-dimethylamino-4-methoxy-pyrimidin-5-yl)-1-isopropyl-4-oxo-1,4,5,6-tetrahydro-pyrrolo[3,4-b]pyrrol-6-yl]-2-fluoro-benzonitrile]
252	COc1ncc(-c2cc3c(n2C(C)C)C(c2ccc(C#N)c(F)c2)N(c2cc(Cl)c(=O)n(C)c2)C3=O)c(OC)n1 (stereo not shown) [Example 195, 4-[5-(5-Chloro-1-methyl-6-oxo-1,6-dihydro-pyridin-3-yl)-2-(2,4-dimethoxy-pyrimidin-5-yl)-1-isopropyl-4-oxo-1,4,5,6-tetrahydro-pyrrolo[3,4-b]pyrrol-6-yl]-2-fluoro-benzonitrile]
